Reference: patent US4684664A, “Derivatives of β-(4-isocyano-1,2,3,4-diepoxycyclopentyl) acrylic acid” (Kureha Kagaku Kogyo Kabushiki Kaisha, priority 1984, dated 1987)
Values after ≈ are worked out from the molar mass of the structure shown.

Key:
Format in all cases: cell-based
[1] = test system: Staphylococcus aureus FDA 209PJc-1; assay: Antibacterial activity, agar-dilution MIC, organism No. 1; details: Staphylococcus aureus, FDA209PJC1; Organism No. 1, bouillon-agar; read-out: Minimum Inhibitory Concentration
From the text: (§1) Agar-dilution method was used for determination of the antibacterial activity and antifungal activity while using bouillon-agar culture medium, and the minimum inhibitory concentration of the specimen was expressed by μg/ml of the culture medium.

[2] = test system: Staphylococcus aureus Terajima; assay: Antibacterial activity, agar-dilution MIC, organism No. 2; details: Staphylococcus aureus; Organism No. 2, bouillon-agar; read-out: Minimum Inhibitory Concentration
From the text: as §1

[3] = test system: Staphylococcus aureus MS 353; assay: Antibacterial activity, agar-dilution MIC, organism No. 3; details: Staphylococcus aureus, MS353; Organism No. 3, bouillon-agar; read-out: Minimum Inhibitory Concentration
From the text: as §1

[4] = test system: Streptococcus pyogenes Cook; assay: Antibacterial activity, agar-dilution MIC, organism No. 4; details: Streptococcus pyogenes; Organism No. 4, bouillon-agar; read-out: Minimum Inhibitory Concentration
From the text: as §1

[5] = test system: Escherichia coli NIHJ-JC-2; assay: Antibacterial activity, agar-dilution MIC, organism No. 5; details: Escherichia coli, NIHJJC2; Organism No. 5, bouillon-agar; read-out: Minimum Inhibitory Concentration
From the text: as §1

[6] = test system: Escherichia coli K12 C600 IAM 1264; assay: Antibacterial activity, agar-dilution MIC, organism No. 6; details: Escherichia coli, IAM1264; Organism No. 6, bouillon-agar; read-out: Minimum Inhibitory Concentration
From the text: as §1

[7] = test system: Klebsiella pneumoniae PCI-602; assay: Antibacterial activity, agar-dilution MIC, organism No. 7; details: Klebsiella pneumoniae, PCI602; Organism No. 7, bouillon-agar; read-out: Minimum Inhibitory Concentration
From the text: as §1

[8] = test system: Salmonella typhimurium IID 971; assay: Antibacterial activity, agar-dilution MIC, organism No. 8; details: Salmonella enterica; Organism No. 8, bouillon-agar; read-out: Minimum Inhibitory Concentration
From the text: as §1

Salmonella typhi 901 = assay: Antibacterial activity, agar-dilution MIC, organism No. 9; details: Salmonella enterica, TYPHI, read-out: Minimum Inhibitory Concentration
From the text: as §1

[9] = test system: Salmonella paratyphi-A 1015; assay: Antibacterial activity, agar-dilution MIC, organism No. 10; details: Salmonella enterica, PARATYPHI, read-out: Minimum Inhibitory Concentration
From the text: as §1

[10] = test system: Salmonella shottmuelleri 8006; assay: Antibacterial activity, agar-dilution MIC, organism No. 11; details: Salmonella, 8006; Organism No. 11, bouillon-agar; read-out: Minimum Inhibitory Concentration
From the text: as §1

[11] = test system: Salmonella enteritidis G 14; assay: Antibacterial activity, agar-dilution MIC, organism No. 12; details: Salmonella enterica, ENTERITIDIS; Organism No. 12, bouillon-agar; read-out: Minimum Inhibitory Concentration
From the text: as §1

[12] = test system: Bacillus subtilis ATCC 6633; assay: Antibacterial activity, agar-dilution MIC, organism No. 14; details: Bacillus subtilis, ATCC6633; Organism No. 14, bouillon-agar; read-out: Minimum Inhibitory Concentration
From the text: as §1

[13] = test system: Pseudomonas aeruginosa IFO 3445; assay: Antibacterial activity, agar-dilution MIC, organism No. 15; details: Pseudomonas aeruginosa, IFO3445; Organism No. 15, bouillon-agar; read-out: Minimum Inhibitory Concentration
From the text: as §1

[14] = test system: Pseudomonas aeruginosa NCTC 10490; assay: Antibacterial activity, agar-dilution MIC, organism No. 16; details: Pseudomonas aeruginosa, NCTC10490; Organism No. 16, bouillon-agar; read-out: Minimum Inhibitory Concentration
From the text: as §1

[15] = test system: Pseudomonas aeruginosa PAO 1; assay: Antibacterial activity, agar-dilution MIC, organism No. 17; details: Pseudomonas aeruginosa, PAO1; Organism No. 17, bouillon-agar; read-out: Minimum Inhibitory Concentration
From the text: as §1

[16] = test system: Proteus morganii IFO 3848; assay: Antibacterial activity, agar-dilution MIC, organism No. 18; details: Morganella morganii, IFO3848; Organism No. 18, bouillon-agar; read-out: Minimum Inhibitory Concentration
From the text: as §1

[17] = test system: Proteus mirabilis IFO 3849; assay: Antibacterial activity, agar-dilution MIC, organism No. 19; details: Proteus mirabilis, IFO3849; Organism No. 19, bouillon-agar; read-out: Minimum Inhibitory Concentration
From the text: as §1

Proteus vulgaris OX-19 = assay: Antibacterial activity, agar-dilution MIC, organism No. 20; details: Proteus vulgaris, OX19; Organism No. 20, bouillon-agar; read-out: Minimum Inhibitory Concentration
From the text: as §1

Proteus vulgaris HX-19 = assay: Antibacterial activity, agar-dilution MIC, organism No. 21; details: Proteus vulgaris, HX19; Organism No. 21, bouillon-agar; read-out: Minimum Inhibitory Concentration
From the text: as §1

[18] = test system: Proteus rettgeri IFO 3850; assay: Antibacterial activity, agar-dilution MIC, organism No. 22; details: Providencia rettgeri, IFO3850; Organism No. 22, bouillon-agar; read-out: Minimum Inhibitory Concentration
From the text: as §1

[19] = test system: Enterobacter aerogenes ATCC 13048; assay: Antibacterial activity, agar-dilution MIC, organism No. 23; details: Klebsiella aerogenes, ATCC13048; Organism No. 23, bouillon-agar; read-out: Minimum Inhibitory Concentration
From the text: as §1

Enterobacter cloacae 963 = assay: Antibacterial activity, agar-dilution MIC, organism No. 24; details: Enterobacter cloacae, 963; Organism No. 24, bouillon-agar; read-out: Minimum Inhibitory Concentration
From the text: as §1

[20] = test system: Micrococcus luteus ATCC 9341; assay: Antibacterial activity, agar-dilution MIC, organism No. 25; details: Micrococcus luteus, ATCC9341; Organism No. 25, bouillon-agar; read-out: Minimum Inhibitory Concentration
From the text: as §1

[21] = test system: Streptococcus pyogenes IFO 3340; assay: Antibacterial activity, agar-dilution MIC, organism No. 26; details: Streptococcus pyogenes, IFO3340; Organism No. 26, bouillon-agar; read-out: Minimum Inhibitory Concentration
From the text: as §1

[22] = test system: Streptococcus faecium IFO 3826; assay: Antibacterial activity, agar-dilution MIC, organism No. 27; details: Enterococcus faecium, IFO3826; Organism No. 27, bouillon-agar; read-out: Minimum Inhibitory Concentration
From the text: as §1

[23] = test system: Mycoplasma pneumoniae IID817; assay: Antimycoplasmal activity, MIC by phenol red colour change, organism No. 28; details: Mycoplasma, IID817; Organism No. 28, PPLO broth + 1% glucose, 37° C.; read-out: Minimum Inhibitory Concentration (MIC)
Procedure: Mycoplasma pneumoniae IID817 was used as the test microorganism in a culture medium prepared by adding 1% of glucose to "PPLO broth (manufactured by Difco Co.) liquid culture medium" at 37° C. with phenol red as an indicator, thereby culturing the test microorganism.

[24] = test system: Candida albicans IAM 4905; assay: Antifungal activity, agar-dilution MIC, organism No. 29; details: Candida albicans, IAM4905; Organism No. 29, bouillon-agar; read-out: Minimum Inhibitory Concentration
From the text: as §1

[25] = test system: Aspergillus niger IFO 6342; assay: Antifungal activity, agar-dilution MIC, organism No. 30; details: Aspergillus niger, IFO6342; Organism No. 30, bouillon-agar; read-out: Minimum Inhibitory Concentration
From the text: as §1

SMILES | MIC [1] | MIC [2] | MIC [3] | MIC [4] | MIC [5] | MIC [6] | MIC [7] | MIC [8] | MIC (Salmonella typhi 901) | MIC [9] | MIC [10] | MIC [11] | MIC [12] | MIC [13] | MIC [14] | MIC [15] | MIC [16] | MIC [17] | MIC (Proteus vulgaris OX-19) | MIC (Proteus vulgaris HX-19) | further results
[C-]#[N+]C12CC3(/C=C/C(=O)N[C@@H](Cc4ccccc4)C(=O)OCc4ccccc4)OC3C1O2 (stereo partly drawn) [compound 31] | > 200 µg/mL | > 200 µg/mL | > 200 µg/mL | > 200 µg/mL | > 200 µg/mL | > 200 µg/mL | > 200 µg/mL | > 200 µg/mL | > 200 µg/mL | > 200 µg/mL | > 200 µg/mL | > 200 µg/mL | > 200 µg/mL | > 200 µg/mL | > 200 µg/mL | > 200 µg/mL | > 200 µg/mL | > 200 µg/mL | > 200 µg/mL | > 200 µg/mL | MIC [18]: > 200 µg/mL; MIC [19]: > 200 µg/mL; MIC (Enterobacter cloacae 963): > 200 µg/mL; MIC [20]: 6.25 µg/mL (≈ 14.5 µM); MIC [21]: > 200 µg/mL; MIC [22]: > 200 µg/mL; MIC [23]: > 100 µg/mL; MIC [24]: > 100 µg/mL; MIC [25]: > 100 µg/mL
[C-]#[N+]C12CC3(/C=C/C(=O)N[C@@H](CC(=O)OC)C(=O)OC)OC3C1O2 (stereo partly drawn) [Compound No. 27] | 25 µg/mL (≈ 74.3 µM) | 100 µg/mL (≈ 297 µM) | 25 µg/mL (≈ 74.3 µM) | 50 µg/mL (≈ 149 µM) | 100 µg/mL (≈ 297 µM) | 50 µg/mL (≈ 149 µM) | 25 µg/mL (≈ 74.3 µM) | 100 µg/mL (≈ 297 µM) | 25 µg/mL (≈ 74.3 µM) | 25 µg/mL (≈ 74.3 µM) | 25 µg/mL (≈ 74.3 µM) | 25 µg/mL (≈ 74.3 µM) | 100 µg/mL (≈ 297 µM) | > 200 µg/mL | > 200 µg/mL | > 200 µg/mL | 25 µg/mL (≈ 74.3 µM) | > 200 µg/mL | 25 µg/mL (≈ 74.3 µM) | 12.5 µg/mL (≈ 37.2 µM) | MIC [18]: > 200 µg/mL; MIC [19]: > 200 µg/mL; MIC (Enterobacter cloacae 963): > 200 µg/mL; MIC [20]: 12.5 µg/mL (≈ 37.2 µM); MIC [21]: 50 µg/mL (≈ 149 µM); MIC [22]: > 200 µg/mL; MIC [23]: > 100 µg/mL; MIC [24]: 100 µg/mL (≈ 297 µM); MIC [25]: > 100 µg/mL
[C-]#[N+]C12CC3(/C=C/C(=O)NCc4ccccc4)OC3C1O2 (stereo not drawn) [Compound No. 24] | 0.78 µg/mL (≈ 2.76 µM) | 1.56 µg/mL (≈ 5.53 µM) | 0.78 µg/mL (≈ 2.76 µM) | 6.25 µg/mL (≈ 22.1 µM) | 12.5 µg/mL (≈ 44.3 µM) | 6.25 µg/mL (≈ 22.1 µM) | 1.56 µg/mL (≈ 5.53 µM) | 6.25 µg/mL (≈ 22.1 µM) | 3.13 µg/mL (≈ 11.1 µM) | 1.56 µg/mL (≈ 5.53 µM) | 0.78 µg/mL (≈ 2.76 µM) | 1.56 µg/mL (≈ 5.53 µM) | 12.5 µg/mL (≈ 44.3 µM) | > 100 µg/mL | > 100 µg/mL | > 100 µg/mL | 1.56 µg/mL (≈ 5.53 µM) | 12.5 µg/mL (≈ 44.3 µM) | 0.78 µg/mL (≈ 2.76 µM) | < 0.05 µg/mL | MIC [18]: 3.13 µg/mL (≈ 11.1 µM); MIC [19]: > 100 µg/mL; MIC (Enterobacter cloacae 963): > 100 µg/mL; MIC [20]: < 0.05 µg/mL; MIC [21]: 6.25 µg/mL (≈ 22.1 µM); MIC [22]: 1.56 µg/mL (≈ 5.53 µM); MIC [23]: < 0.2 µg/mL; MIC [24]: 0.2 µg/mL (≈ 0.708 µM); MIC [25]: 1.56 µg/mL (≈ 5.53 µM)
